In ChEMBL document CHEMBL1201862, “PubChem BioAssay data set” (2004):
Calls of active or inactive are those of the source.

Legend:
Protein Tat = Protein Tat (Human immunodeficiency virus type 1 group M subtype B (isolate HXB2)(HIV-1), UniProt P04608); assay type: functional;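 also: tat binding to TAR RNA read out by fluorescence polarization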
[1] = inhibitors of Vif binding to APOBEC3G peptide, primary screen, biochemical, TR-FRET, GST-Vif 1-94, biotin-A3G peptide, dose response retest (AID 1117319); assay type: functional;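 also: TR-FRET signal of purified GST-Vif binding a biotinylated A3G peptide; inhibitors lower the FRET signal by blocking Vif and A3G binding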
Major prion protein = Major prion protein (Homo sapiens, UniProt P04156); assay type: functional, cell-based
cells [2] = experiment: cells
[3] = P. falciparum late gametocyte killing, dose response, luminescence (AID 1117278); assay type: functional, cell-based;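 also: gametocytes exposed to compound for 24 hours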
Streptokinase A = biological target: T1, Streptokinase A (Streptococcus pyogenes serotype M1, UniProt P10520); experiment: S. pyogenes streptokinase expression inhibitors, potency, dose response, plasminogen activation absorbance, OD405 (AID 1914); assay type: functional, Streptococcus pyogenes M1 GAS;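 also: secreted streptokinase activity via plasminogen activation per viability signal from cell pellet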
T1 sequence (P10520 whole entry): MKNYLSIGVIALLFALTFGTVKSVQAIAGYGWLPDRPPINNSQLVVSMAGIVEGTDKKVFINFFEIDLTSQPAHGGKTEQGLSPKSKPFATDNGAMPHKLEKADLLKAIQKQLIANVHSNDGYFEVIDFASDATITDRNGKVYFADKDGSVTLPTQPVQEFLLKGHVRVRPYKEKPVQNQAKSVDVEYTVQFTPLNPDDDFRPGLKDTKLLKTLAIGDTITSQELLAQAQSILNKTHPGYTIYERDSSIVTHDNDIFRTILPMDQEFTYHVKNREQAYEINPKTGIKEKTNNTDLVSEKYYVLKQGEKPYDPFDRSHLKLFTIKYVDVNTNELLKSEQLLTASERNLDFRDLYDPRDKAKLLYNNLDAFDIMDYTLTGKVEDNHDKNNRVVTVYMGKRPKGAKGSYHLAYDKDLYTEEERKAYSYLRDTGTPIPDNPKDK

Streptococcus = experiment: Group A Streptococcus viability loss, dose response, counter-screen for streptokinase expression inhibitor project, luminescence, BacTiterGlo (AID 1915); assay type: functional, organism-based;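 also: potency for reduction of bacterial viability or growth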
[4] = system: Streptococcus sp. 'group A'; experiment: growth inhibition of control SK(-) GAS strain, dose response, counter-screen for streptokinase expression inhibitor project, luminescence, kanamycin, BacTiterGlo, confirmation (AID 1900); assay type: functional, organism-based
[5] = Jurkat T cell cytotoxicity, dose response, cytotoxicity control for P. falciparum gametocyte viability project, luminescence (AID 1117277); assay type: functional, cell-based;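 also: potency reflects loss of cellular ATP meaning fewer viable cells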
[6] = Counterscreen for […] of the human trace amine associated receptor 1 (TAAR1): Fluorescence-based cell-based high throughput dose response assay to identify nonselective Ga16 agonists.; assay type: functional
[7] = Counterscreen for antagonists of the human trace amine associated receptor 1 (hTAAR1): Fluorescence-based cell-based high throughput dose response assay to identify nonselective Ga16 antagonists.; assay type: functional
[8] = biological target: T2, Trace amine-associated receptor 1 (Homo sapiens, UniProt Q96RJ0); experiment: Fluorescence-based cell-based high throughput dose response assay to identify antagonists of the human trace amine associated receptor 1 (TAAR1).; assay type: functional
T2 sequence (Q96RJ0 whole entry): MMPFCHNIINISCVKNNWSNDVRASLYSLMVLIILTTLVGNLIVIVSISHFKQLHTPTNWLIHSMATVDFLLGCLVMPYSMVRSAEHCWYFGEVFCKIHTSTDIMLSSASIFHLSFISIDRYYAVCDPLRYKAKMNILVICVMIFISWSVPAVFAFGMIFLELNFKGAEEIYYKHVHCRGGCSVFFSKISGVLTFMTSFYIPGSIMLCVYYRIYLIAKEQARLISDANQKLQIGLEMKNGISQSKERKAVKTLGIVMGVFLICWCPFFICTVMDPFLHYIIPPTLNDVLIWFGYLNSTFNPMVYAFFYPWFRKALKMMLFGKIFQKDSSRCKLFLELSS

[9] = biological target: T2, Trace amine-associated receptor 1; experiment: Counterscreen for antagonists of the human trace amine associated receptor 1 (hTAAR1): Fluorescence-based cell-based high throughput dose response assay to identify TAAR1 Agonists.; assay type: functional
[10] = THP-1 cell cytotoxicity, dose response, cytotoxicity control for Vif-APOBEC3G degradation inhibitor project, THP-1 cells (AID 1117359); assay type: functional; settings: Human immunodeficiency virus 1, THP-1
[11] = A2780 ovarian cancer cell cytotoxicity, dose response, cytotoxicity control, plate reader, dry powder samples (AID 743046); assay type: functional, cell-based
Paired box protein Pax-8 = Paired box protein Pax-8 (Homo sapiens, UniProt Q06710); experiment: inhibitors of PAX8-driven TPO luciferase reporter, dose response, RMG-I cells, cherry-pick (AID 687027); assay type: functional, cell-based;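 also: luciferase reporter driven by Pax8 target thyroperoxidase promoter measured by SteadyGlo luminescence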
[12] = biological target: T3, Oxysterols receptor LXR-beta (Homo sapiens, UniProt P55055); assay type: functional, cell-based;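 also: Cell-based luminescence dose-response assay of agonist activity at LXR, run as a confirmatory counterscreen to a daf-12 agonist screen; HEK293 cells with Gal4-LXR fusion and GAL4-driven luciferase reporter; agonist potency from rising luciferase signal of a Gal4-LXR reporter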
T3 sequence (P55055 whole entry): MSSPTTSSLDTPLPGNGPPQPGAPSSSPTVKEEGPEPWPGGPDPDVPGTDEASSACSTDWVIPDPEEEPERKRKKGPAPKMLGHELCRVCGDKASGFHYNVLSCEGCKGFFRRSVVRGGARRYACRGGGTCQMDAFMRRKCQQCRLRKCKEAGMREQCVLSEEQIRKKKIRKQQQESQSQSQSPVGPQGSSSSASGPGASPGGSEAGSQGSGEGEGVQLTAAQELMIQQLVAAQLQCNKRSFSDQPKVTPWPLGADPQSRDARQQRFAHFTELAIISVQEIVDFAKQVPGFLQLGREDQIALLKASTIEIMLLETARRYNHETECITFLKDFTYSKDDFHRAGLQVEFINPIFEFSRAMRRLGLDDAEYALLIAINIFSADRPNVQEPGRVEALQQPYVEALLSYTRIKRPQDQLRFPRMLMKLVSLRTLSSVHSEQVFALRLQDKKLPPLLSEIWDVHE

cells [13] = experiment: cells; remark: listed apart in the source
[14] = HepG2 cell cytotoxicity, dose response, cytotoxicity control, plate reader, dry powder, set 6 (AID 743311); assay type: functional, cell-based
cells [15] = settings: HEK293
[16] = A549 cell cytotoxicity, dose response, cytotoxicity control, plate reader, dry powder, set 6 (AID 743312); assay type: functional, cell-based
[17] = P. falciparum ATP4 D1247Y mutant growth inhibitors, dose response, NITD609-resistant line, SYBR Green, dry powder (AID 1159571); assay type: functional, cell-based;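 also: parasites synchronized at ring stage by sorbitol before testing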
[18] = P. falciparum 3D7-ScDHODH growth inhibitors, dose response, SYBR Green, dry powder samples (AID 1159570); assay type: functional, cell-based;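 also: parasite growth measured after 72 hours of compound exposure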
[19] = P. falciparum Dd2 growth inhibitors, dose response, SYBR Green, cherry-picked samples (AID 1159567); assay type: functional, cell-based
[20] = P. falciparum Dd2 growth inhibitors, dose response, SYBR Green, dry powder samples (AID 1159566); assay type: functional, cell-based;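 also: potency for growth inhibition with lower SYBR green DNA signal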
[21] = half-maximal inhibitory concentration for glucagon-like peptide-1 release, STC-1 cell line, dose-response (AID 1117345); assay type: functional, cell-based
[22] = Glucagon-like peptide 1 release potency, NCI-H716 cell line, dose-response, half-maximal inhibitory concentration (AID 1117344); assay type: functional, cell-based

Structure (SMILES): CC(=O)C1=C(O)C(=O)N(Cc2ccco2)C1c1ccc(F)cc1 (stereo not drawn)
- IC50 (Protein Tat): > 100 µM (active)
- IC50 [1]: > 100 µM (active)

Structure (SMILES): CC(C)(C)c1nc(SCC(=O)NNC(=O)c2ccccc2)c2ccccc2n1
- IC50 (Major prion protein): 5.46 µM (active)
- IC50 (cells [2]): > 138 µM (inactive)

Structure (SMILES): COc1ccc2ncc(S(=O)(=O)c3ccccc3)c(N3CCN(c4ccccc4)CC3)c2c1
- IC50 [3]: > 109 µM (inactive)
- EC50 (Streptokinase A): > 150 µM (not active)
- EC50 (Streptococcus): 74.8 µM (active)
- EC50 [4]: 9.42 µM (active)
- IC50 [5]: > 83.3 µM (inactive)

Structure (SMILES): O=[N+]([O-])c1ccc(-c2c(-c3ccccc3)ncc3ccc(F)cc23)cc1
- EC50 [6]: > 29.9 µM (inactive)
- IC50 [7]: > 29.9 µM (inactive)
- IC50 [8]: 1.83 µM (active)
- EC50 [9]: > 29.9 µM (inactive)

Structure (SMILES): COc1cccc(-c2nc(CS(=O)(=O)CC(=O)NC3CC3)c(C)o2)c1
- CC50 [10]: > 40 µM (active)

Structure (SMILES): C[C@H]1CN([C@@H](C)CO)C(=O)Cc2cc(NC(=O)Nc3ccc(C(F)(F)F)cc3)ccc2O[C@H]1CN(C)C(=O)Nc1ccc(C(F)(F)F)cc1
- AC50 [11]: 25.8 µM (active)
- AC50 (Paired box protein Pax-8): 13 µM (active)

Structure (SMILES): Cc1ccsc1/C=N/N=C/c1sccc1C
- EC50 [12]: > 67.5 µM (inactive)
- EC50 (cells [13]): > 67.5 µM (inactive)

Structure (SMILES): CC(C)(C)c1ccc(OCCn2cnc3ccccc32)c(Cl)c1
- AC50 [14]: 36.6 µM (active)
- AC50 (cells [15]): 37.4 µM (active)

Structure (SMILES): CC(C)(C)c1ccc(OCCn2c(CO)nc3ccccc32)cc1
- AC50 (cells [15]): 21.6 µM (active)
- AC50 [16]: 20.6 µM (active)

Structure (SMILES): OC[C@H]1CC[C@@H]2O[C@H](CCc3ccc(C#CCc4ccccc4)cc3)[C@H](n3cc(-c4ccccc4)nn3)C[C@@H]2O1
- AC50 [17]: 0.665 µM (active)
- AC50 [18]: 1.39 µM (active)
- AC50 [19]: 0.739 µM (active)
- AC50 [20]: 0.407 µM (active)

Structure (SMILES): O=c1oc2ccccc2c(O)c1C(CC(O)c1ccc(-c2ccc(Br)cc2)cc1)c1ccccc1 (stereo not drawn) [BROMODIOLONE]
- IC50 [21]: 9.16 µM (inactive)
- IC50 [22]: > 40 µM (inactive)
